From patent US20250179073A1, “TRICYCLIC HETEROCYCLE COMPOUNDS AS IAP ANTAGONISTS” (Ascentage Pharma (Suzhou) Co., Ltd., priority 2022, published 2025)
pIC50: −log10 of the molar value.

Tested on: MDA-MB-231 cells
Assay: Cell proliferation assay (CellTiter-Glo), MDA-MB-231
Type: cell-based
Conditions: Homo sapiens, MDA-MB-231, 72 h, 72 h treatment, Celltiter-Glo luminescence
Method: Example 238: Cell Proliferation Assay
MDA-MB-231 and EVSA-T cells (10000 cells/well) were plated onto 96-well plates (Corning, Cat #3917) in 95 μL of medium (RPMI-1640 containing 10% FBS and MEM containing 10% FBS, respectively). Compounds with various concentrations ([…]) were added to the wells. After treatment for 72 h, 30 μL of Celltiter-Glo reagent (Promega, Cat #G7573) was added and incubated at room temperature for 15 min, then the luminescent signal was determined using a microplate reader (Biotek, SynergyH1). The inhibitor dose-response curves were analyzed using normalized IC50 regression curve fitting with control based normalization.

| Structure (SMILES) | pIC50 |
| --- | --- |
| C[C@@H]1CN(CC(=O)N2CC(C)(C)c3c2cc(Cc2ccc(F)cc2)c2ncnn32)[C@@H](CN2CC3CC2CO3)CN1 (stereo partly drawn) [Compound 78, 2-((2R,5R)-2-((2-oxa-5-azabicyclo[2.2.1]heptan-5-yl)methyl)-5-methylpiperazin-1-yl)-1-(4-(4-fluorobenzyl)-8,8-dimethyl-7,8-dihydro-6H-pyrrolo[2,3-e][1,2,4]triazolo[1,5-a]pyridin-6-yl)ethan-1-one] | 6.92 |
| C[C@@H]1CN(CC(=O)N2CC(C)(C)c3c2cc(Cc2ccc(F)cc2)c2nc(CS(C)(=O)=O)nn32)[C@@H](CN2CCOC[C@H]2C)CN1 [Compound 141, 1-(4-(4-fluorobenzyl)-8,8-dimethyl-2-((methylsulfonyl)methyl)-7,8-dihydro-6H-pyrrolo[2,3-e][1,2,4]triazolo[1,5-a]pyridin-6-yl)-2-((2R,5R)-5-methyl-2-(((R)-3-methylmorpholino)methyl)piperazin-1-yl)ethan-1-one] | 6.51 |
| C[C@@H]1CN(CC(=O)N2CC(C)(C)c3c2cc(Cc2ccc(F)cc2)c2nc(C(=O)O)cn32)[C@@H](CN2CCOC[C@H]2C)CN1 [Compound 117, 4-(4-fluorobenzyl)-8,8-dimethyl-6-(2-((2R,5R)-5-methyl-2-(((R)-3-methylmorpholino)methyl)piperazin-1-yl)acetyl)-7,8-dihydro-6H-imidazo[1,2-a]pyrrolo[2,3-e]pyridine-2-carboxylic acid] | < 5.00 |
| C[C@@H]1CN(CC(=O)N2CC(C)(C)c3c2cc(Cc2ccc(F)cc2)c2nc(=O)[nH]n32)[C@@H](CN2CCOC[C@H]2C)CN1 [Compound 131, 4-(4-fluorobenzyl)-8,8-dimethyl-6-(2-((2R,5R)-5-methyl-2-(((R)-3-methylmorpholino)methyl)piperazin-1-yl)acetyl)-7,8-dihydro-1H-pyrrolo[2,3-e][1,2,4]triazolo[1,5-a]pyridin-2(6H)-one] | 5.56 |
| C[C@@H]1CN(CC(=O)N2CC(C)(C)c3c2cc(Cc2ccc(F)cc2)c2nc(N4CCNC(=O)C4)nn32)[C@@H](CN2CCOC[C@H]2C)CN1 [Compound 195, 4-(4-(4-fluorobenzyl)-8,8-dimethyl-6-(2-((2R,5R)-5-methyl-2-(((R)-3-methylmorpholino)methyl)piperazin-1-yl)acetyl)-7,8-dihydro-6H-pyrrolo[2,3-e][1,2,4]triazolo[1,5-a]pyridin-2-yl)piperazin-2-one] | 6.74 |
| CCc1nnc2c(Cc3ccc(F)cc3)cc3c(n12)C(C)(C)CN3C(=O)CN1C[C@@H](C)NC[C@@H]1CN1CCOC[C@H]1C [Compound 172, 1-(1-ethyl-4-(4-fluorobenzyl)-8,8-dimethyl-7,8-dihydro-6H-pyrrolo[2,3-e][1,2,4]triazolo[4,3-a]pyridin-6-yl)-2-((2R,5R)-5-methyl-2-(((R)-3-methylmorpholino)methyl)piperazin-1-yl)ethan-1-one] | 6.21 |
| C[C@@H]1CN(CC(=O)N2CC(C)(C)c3c2cc(N2CCOc4cc(F)ccc42)c2ncnn32)[C@@H](CN2CCOC[C@H]2C)CN1 [Compound 169, 1-(4-(7-fluoro-2,3-dihydro-4H-benzo[b][1,4]oxazin-4-yl)-8,8-dimethyl-7,8-dihydro-6H-pyrrolo[2,3-e][1,2,4]triazolo[1,5-a]pyridin-6-yl)-2-((2R,5R)-5-methyl-2-(((R)-3-methylmorpholino)methyl)piperazin-1-yl)ethan-1-one] | 6.01 |
| C[C@@H]1CN(CC(=O)N2CC(C)(C)c3c2cc(Cc2ccc(F)cc2)c2nc(N4CCOCC4=O)nn32)[C@@H](CN2CCOC[C@H]2C)CN1 [Compound 208, 4-(4-(4-fluorobenzyl)-8,8-dimethyl-6-(2-((2R,5R)-5-methyl-2-(((R)-3-methylmorpholino)methyl)piperazin-1-yl)acetyl)-7,8-dihydro-6H-pyrrolo[2,3-e][1,2,4]triazolo[1,5-a]pyridin-2-yl)morpholin-3-one] | 6.68 |
| C[C@@H]1CN(CC(=O)N2CC(C)(C)c3c2cc(Cc2ccc(F)cc2)c2nn(CC(C)(C)O)c(=O)n32)[C@@H](CN2CC(F)(F)C[C@H]2C)CN1 [Compound 288, 6-(2-((2R,5R)-2-(((R)-4,4-difluoro-2-methylpyrrolidin-1-yl)methyl)-5-methylpiperazin-1-yl)acetyl)-4-(4-fluorobenzyl)-2-(2-hydroxy-2-methylpropyl)-8,8-dimethyl-2,6,7,8-tetrahydro-1H-pyrrolo[2,3-e][1,2,4]triazolo[4,3-a]pyridin-1-one] | 7.54 |
| C[C@@H]1CN(CC(=O)N2CC(C)(C)c3c2cc(Cc2ccc(F)cc2)n2cnnc32)[C@@H](CN2CCOC[C@H]2C)CN1 [Example 23, 1-(5-(4-fluorobenzyl)-9,9-dimethyl-8,9-dihydro-7H-pyrrolo[3,2-c][1,2,4]triazolo[4,3-a]pyridin-7-yl)-2-((2R,5R)-5-methyl-2-(((R)-3-methylmorpholino)methyl)piperazin-1-yl)ethan-1-one] | 6.49 |
| C[C@@H]1CN(CC(=O)N2CC(C)(C)c3c2cc(Cn2ccc(F)cc2=O)c2ncnn32)[C@@H](CN2CCOC[C@H]2C)CN1 [Compound 151, 1-((8,8-dimethyl-6-(2-((2R,5R)-5-methyl-2-(((R)-3-methylmorpholino)methyl)piperazin-1-yl)acetyl)-7,8-dihydro-6H-pyrrolo[2,3-e][1,2,4]triazolo[1,5-a]pyridin-4-yl)methyl)-4-fluoropyridin-2(1H)-one] | 5.42 |
| C[C@@H]1CN(CC(=O)N2CC(C)(C)c3c2cc(Cc2ccc(F)cc2)c2nc(=O)n(C)n32)[C@@H](CN2CCOC[C@H]2C)CN1 [compound 127, 4-(4-fluorobenzyl)-1,8,8-trimethyl-6-(2-((2R,5R)-5-methyl-2-(((R)-3-methylmorpholino)methyl)piperazin-1-yl)acetyl)-7,8-dihydro-1H-pyrrolo[2,3-e][1,2,4]triazolo[1,5-a]pyridin-2(6H)-one] | 5.51 |
| C[C@@H]1CN(CC(=O)N2CC(C)(C)c3c2cc(Cc2ccc(F)cc2)c2ncnn32)[C@@H](CN2CCN(C)C(=O)[C@H]2C)CN1 [Compound 205, (R)-4-(((2R,5R)-1-(2-(4-(4-fluorobenzyl)-8,8-dimethyl-7,8-dihydro-6H-pyrrolo[2,3-e][1,2,4]triazolo[1,5-a]pyridin-6-yl)-2-oxoethyl)-5-methylpiperazin-2-yl)methyl)-1,3-dimethylpiperazin-2-one] | 5.15 |
| C[C@@H]1CN(CC(=O)N2CC(C)(C)c3c2cc(Cc2ccc(F)cc2)c2nn(CC(C)(C)O)c(=O)n32)[C@@H](CN2C3COCC2C3)CN1 [Compound 289, 6-(2-((2R,5R)-2-((3-oxa-6-azabicyclo[3.1.1]heptan-6-yl)methyl)-5-methylpiperazin-1-yl)acetyl)-4-(4-fluorobenzyl)-2-(2-hydroxy-2-methylpropyl)-8,8-dimethyl-2,6,7,8-tetrahydro-1H-pyrrolo[2,3-e][1,2,4]triazolo[4,3-a]pyridin-1-one] | 5.77 |
| C[C@@H]1CN(CC(=O)N2CC(C)(C)c3c2cc(Cc2ccc(F)cc2)c2nc(N(S(C)(=O)=O)S(C)(=O)=O)nn32)[C@@H](CN2CCOC[C@H]2C)CN1 [Example 16, N-(4-(4-fluorobenzyl)-8,8-dimethyl-6-(2-((2R,5R)-5-methyl-2-(((R)-3-methylmorpholino)methyl)piperazin-1-yl)acetyl)-7,8-dihydro-6H-pyrrolo[2,3-e][1,2,4]triazolo[1,5-a]pyridin-2-yl)-N-(methylsulfonyl)methanesulfonamide] | 5.20 |
| C[C@@H]1CN(CC(=O)N2CC(C)(C)c3c2cc(Sc2ccc(F)cc2N)c2ncnn32)[C@@H](CN2CCOC[C@H]2C)CN1 [Compound 216, 1-(4-((2-amino-4-fluorophenyl)thio)-8,8-dimethyl-7,8-dihydro-6H-pyrrolo[2,3-e][1,2,4]triazolo[1,5-a]pyridin-6-yl)-2-((2R,5R)-5-methyl-2-(((R)-3-methylmorpholino)methyl)piperazin-1-yl)ethan-1-one] | 6.55 |
| Cc1nccn1C[C@H]1CN[C@H](C)CN1CC(=O)N1CC(C)(C)c2c1cc(Cc1ccc(F)cc1)c1nc(C(F)(F)F)cn21 [Compound 186, 1-(4-(4-fluorobenzyl)-8,8-dimethyl-2-(trifluoromethyl)-7,8-dihydro-6H-imidazo[1,2-a]pyrrolo[2,3-e]pyridin-6-yl)-2-((2R,5R)-5-methyl-2-((2-methyl-1H-imidazol-1-yl)methyl)piperazin-1-yl)ethan-1-one] | 6.64 |
| C[C@@H]1CN(CC(=O)N2CC(C)(C)c3c2cc(N2CCNc4cc(F)ccc42)c2ncnn32)[C@@H](CN2CCOC[C@H]2C)CN1 [Compound 198, 1-(4-(6-fluoro-3,4-dihydroquinoxalin-1(2H)-yl)-8,8-dimethyl-7,8-dihydro-6H-pyrrolo[2,3-e][1,2,4]triazolo[1,5-a]pyridin-6-yl)-2-((2R,5R)-5-methyl-2-(((R)-3-methylmorpholino)methyl)piperazin-1-yl)ethan-1-one] | 6.00 |
| C[C@@H]1CN(CC(=O)N2CC3(CCOCC3)c3c2cc(Cc2ccc(F)cc2)c2nc(C(F)(F)F)cn32)[C@@H](CN2CCOC[C@H]2C)CN1 [Compound 183, 1-(4-(4-fluorobenzyl)-2-(trifluoromethyl)-2′,3′,5′,6′-tetrahydrospiro[imidazo[1,2-a]pyrrolo[2,3-e]pyridine-8,4′-pyran]-6(7H)-yl)-2-((2R,5R)-5-methyl-2-(((R)-3-methylmorpholino)methyl)piperazin-1-yl)ethan-1-one] | 6.09 |
| C[C@@H]1CN(CC(=O)N2CC(C)(C)c3c2cc(Cc2ccc(F)cc2)c2nc(C(F)(F)F)cn32)[C@@H](CN2CCOCC2(C)C)CN1 [Compound 146, 2-((2R,5R)-2-((3,3-dimethylmorpholino)methyl)-5-methylpiperazin-1-yl)-1-(4-(4-fluorobenzyl)-8,8-dimethyl-2-(trifluoromethyl)-7,8-dihydro-6H-imidazo[1,2-a]pyrrolo[2,3-e]pyridin-6-yl)ethan-1-one] | 6.57 |
